Measured values taken from patent US20010049373A1, “Materials and methods for killing nematodes and nematode eggs” (priority 2000, published 2001).

What was measured:
[1] = test system: Caenorhabditis elegans; assay: HTS runs (initial and follow-up): mOD, % Run and visual score (Table 3); type: in vivo; parameters: key to Initial HTS Run Visual Score / Follow-up HTS Run Visual Score: Dead: only stiff L1s (no movement); Dead (L4): worms are dead, but at a later larval stage; majority of worms are L1 (based on size); majority of worms are L2 (based on size); majority of worms are L3 (based on size); majority of worms are L4 (based on size); AD: majority of worms are adult; #AD: 5 adult worms or less; B!: sterile (0-25 progeny); B: low broodsize (25-100 progeny); ˜B: moderate broodsize (100-250 progeny); <: reduced broodsize (250-500 progeny); OK: no effect (˜1000+ progeny)
Method: (§1) The nematicidal activity of anthelmintic Compositions 48-118 were determined in accordance with the procedure outlined in Example 2.

[2] = test system: Caenorhabditis elegans; assay: C. elegans L1 larvae dose-response, 5 day visual viability score (Examples 2 and 7); type: in vivo; parameters: key: Dead: only stiff L1s (no movement); Dead (L4): worms are dead, but at a later larval stage; majority of worms are L1 (based on size); majority of worms are L2 (based on size); majority of worms are L3 (based on size); majority of worms are L4 (based on size); AD: majority of worms are adult; #AD: 5 adult worms or less; B!: sterile (0-25 progeny); B: low broodsize (25-100 progeny); ˜B: moderate broodsize (100-250 progeny); <: reduced broodsize (250-500 progeny); OK: no effect (˜1000+ progeny); conditions: day 5, Table 3; for 5 Day Visual Score V6: 0.3 μM (procedure of Example 2); for 5 Day Visual Score V5: 0.9 μM (procedure of Example 2); for 5 Day Visual Score V4: 2.6 μM (procedure of Example 2); for 5 Day Visual Score V3: 7.8 μM (procedure of Example 2); for 5 Day Visual Score V2: 23.3 μM (procedure of Example 2); for 5 Day Visual Score V1: 70 μM (procedure of Example 2)
Method: Caenorhabditis elegans adults were grown on Nematode Growth Medium (NGM) until they produced eggs, then the adults were removed.
The eggs were allowed to hatch, and the L1 larvae collected. See The Neniatode Caenorhabditis elegans (1988) Cold Spring Harbor Laboratory Press. Using a Matrix Programmable Pipette, the L1s were distributed into 96-well tissue culture plates, 20 L1 in 50 μl NGM per well. Antibiotic/Antimyotic was added to each well, and 1% by weight E. coli strain HB101. The subject anthelmintic compounds were stored at 5 mM in 100% DMSO. 0.7 μl of compounds 1-31 were added to the left-most column of wells to yield a final concentration of 70 μM in 1.4% DMSO, with 1.4% DMSO only as the control. The compounds were then subjected to 5 more 3-fold dilutions from left to right to yield 6 column concentrations of 70 μM, 23.3 μM, 7.8 μM, 2.6 μM, 0.9 μM, and 0.3 μM. Plates were stored in air-tight Rubbermaid plastic boxes at 20° C. The nematodes had cleared all control wells by day 4, and nematode viability was scored by visual examination under a 100× dissecting microscope on day 5. A visual viability scoring system was used as follows:
If several classes of worms exist in a well, then all classes are scored. If adults are present, then the brood score is also recorded. Thus, “L1/L2” would mean a mixture of L1's and L2's are present in the well. “L4/#AD/B” would mean that a mixture of L4's and adults are resent in the well. The “#AD” would mean that there are 6 or less adults, and the “B” would mean that there were 100 progeny or less.
Column VI has a compound concentration of 70 μM with sequential 3-fold dilutions reported in columns V2, V3, V4, V5, and V6, respectively, such that the V6 concentration was 0.3 μM.
as §1

Structure (SMILES) | Follow-up HTS Run % Run [1] | Follow-up HTS Run Visual Score [1] | Follow-up HTS Run mOD [1] | Initial HTS Run % Run [1] | Initial HTS Run Visual Score [1] | Initial HTS Run mOD [1] | 5 Day Visual Score V6 [2] | 5 Day Visual Score V5 [2] | 5 Day Visual Score V4 [2] | 5 Day Visual Score V3 [2] | 5 Day Visual Score V2 [2] | 5 Day Visual Score V1 [2]
CCC(C)Nc1cc(Oc2ccc3oc4ccccc4c3c2)ncn1 (stereo not shown) [AKC 349] | 103% | B (low broodsize (25-100 progeny)) | 139 mOD | 127% | 2AD/B! | 247 mOD | OK (no effect (˜1000+ progeny)) | OK (no effect (˜1000+ progeny)) | OK (no effect (˜1000+ progeny)) | #AD/˜B | OK (no effect (˜1000+ progeny)) | 
CCN(C)c1cc(Oc2ccc3ccccc3c2)ncn1 [AKC 350] | 101% | Dead | 136 mOD | 126% | Dead | 245 mOD | OK (no effect (˜1000+ progeny)) | OK (no effect (˜1000+ progeny)) | OK (no effect (˜1000+ progeny)) |  | L1 | L1
Fc1ccc(F)c(CNc2cc(Oc3cccc(Cl)c3)ncn2)c1 [AKC 354] | 108% | B (low broodsize (25-100 progeny)) | 146 mOD | 137% | 1AD/B | 267 mOD | < (reduced broodsize (250-500 progeny)) | OK (no effect (˜1000+ progeny)) | < (reduced broodsize (250-500 progeny)) | #AD/˜B |  | Dead
FC(F)(F)c1ccc(CNc2cc(Oc3cccc(Cl)c3)ncn2)cc1 [AKC 356] | 122% | L2 | 165 mOD | 139% | Dead | 272 mOD | < (reduced broodsize (250-500 progeny)) | OK (no effect (˜1000+ progeny)) | OK (no effect (˜1000+ progeny)) |  | Dead | Dead
COc1ccc(Oc2cc(NCc3ccc(C(F)(F)F)cc3)ncn2)cc1 [AKC 357] | 98% | L4/AD/B! | 132 mOD | 115% | 3AD/B | 224 mOD | OK (no effect (˜1000+ progeny)) | OK (no effect (˜1000+ progeny)) | OK (no effect (˜1000+ progeny)) |  |  | Dead
Fc1ccc(Oc2cc(NCc3ccc(C(F)(F)F)cc3)ncn2)cc1 [AKC 358] | 113% | L3-Dead L3 | 153 mOD | 129% | Dead | 252 mOD | OK (no effect (˜1000+ progeny)) | OK (no effect (˜1000+ progeny)) | OK (no effect (˜1000+ progeny)) |  | Dead | Dead
FC(F)(F)c1ccc(CNc2cc(Oc3ccccc3Cl)ncn2)cc1 [AKC 360] | 112% | L4/AD/B! | 151 mOD | 139% | 1AD/B!-No P | 272 mOD | OK (no effect (˜1000+ progeny)) | OK (no effect (˜1000+ progeny)) | OK (no effect (˜1000+ progeny)) | OK (no effect (˜1000+ progeny)) | Dead | Dead
CN(c1cc(Oc2ccc(-c3ccccc3)cc2)ncn1)C1CCCCC1 [AKC 363] | 122% | Dead | 165 mOD | 141% | Dead | 275 mOD | OK (no effect (˜1000+ progeny)) | OK (no effect (˜1000+ progeny)) | OK (no effect (˜1000+ progeny)) | ˜B (moderate broodsize (100-250 progeny)) | < (reduced broodsize (250-500 progeny)) | Dead
Clc1cccc(CNc2cc(Oc3cccc(Cl)c3)ncn2)c1 [AKC 364] | 108% | L4/AD/B! | 146 mOD | 121% | 4AD/˜B | 236 mOD | OK (no effect (˜1000+ progeny)) | OK (no effect (˜1000+ progeny)) | < (reduced broodsize (250-500 progeny)) | ˜B (moderate broodsize (100-250 progeny)) |  | Dead(L2/L3)
Fc1ccc(Oc2cc(NCc3ccccc3F)ncn2)cc1 [AKC 367] | 91% | B (low broodsize (25-100 progeny)) | 123 mOD | 123% | 2AD/B | 239 mOD | OK (no effect (˜1000+ progeny)) | OK (no effect (˜1000+ progeny)) | < (reduced broodsize (250-500 progeny)) | < (reduced broodsize (250-500 progeny)) | < (reduced broodsize (250-500 progeny)) | L1
Fc1ccc(Oc2cc(NCc3cc(F)cc(F)c3)ncn2)cc1 [AKC 369] | 94% | B (low broodsize (25-100 progeny)) | 127 mOD | 115% | 1AD/B | 225 mOD | OK (no effect (˜1000+ progeny)) | OK (no effect (˜1000+ progeny)) | OK (no effect (˜1000+ progeny)) | < (reduced broodsize (250-500 progeny)) |  | Dead
CC(C)(C)OC(=O)N1CCN(c2cc(Oc3ccc(F)cc3)ncn2)CC1 [AKC 373] | 83% | B (low broodsize (25-100 progeny)) | 112 mOD | 132% |  | 257 mOD | OK (no effect (˜1000+ progeny)) | OK (no effect (˜1000+ progeny)) | OK (no effect (˜1000+ progeny)) |  |  | L4
CC(C)(C)OC(=O)N1CCN(c2cc(Oc3ccccc3Cl)ncn2)CC1 [AKC 374] | 114% |  | 154 mOD | 139% | L3-Dying | 271 mOD | OK (no effect (˜1000+ progeny)) | OK (no effect (˜1000+ progeny)) | OK (no effect (˜1000+ progeny)) | OK (no effect (˜1000+ progeny)) |  | Dead(L2/L3)
